Drawing on PubChem BioAssay AID1745859, this text covers IC50 for one compound.

For the assay, the target named is Equilibrative nucleoside transporter 1 (Homo sapiens) (UniProt Q99808). In words: PubChem AID 1745859. As to conditions: U2OS JumpIn-ENT1 cells, TRACT impedance, adenosine response.
Equilibrative nucleoside transporter 1 (Homo sapiens), sequence (Q99808 whole entry, looked up): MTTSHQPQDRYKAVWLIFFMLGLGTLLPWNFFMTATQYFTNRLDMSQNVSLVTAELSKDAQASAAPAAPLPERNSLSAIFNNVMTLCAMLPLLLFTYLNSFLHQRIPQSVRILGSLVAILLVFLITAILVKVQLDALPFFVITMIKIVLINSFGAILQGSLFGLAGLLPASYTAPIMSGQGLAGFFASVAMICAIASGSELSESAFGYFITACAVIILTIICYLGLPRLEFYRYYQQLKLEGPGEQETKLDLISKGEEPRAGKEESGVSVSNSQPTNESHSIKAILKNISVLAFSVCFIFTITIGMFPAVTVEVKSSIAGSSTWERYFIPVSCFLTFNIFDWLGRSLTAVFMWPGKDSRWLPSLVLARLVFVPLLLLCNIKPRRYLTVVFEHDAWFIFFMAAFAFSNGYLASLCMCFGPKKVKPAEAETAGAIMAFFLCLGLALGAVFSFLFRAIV

As a reminder, the IC50 is the concentration needed to halve the response being measured. `NC(=O)C1CN(CCCCC(c2ccc(F)cc2)c2ccc(F)cc2)CCN1CC(=O)Nc1c(Cl)cc(N)cc1Cl` (stereo unspecified): the IC50 is 5.31 nM.
